Experimental data as given in article PMC5698552 (mBio, 2017).

What was measured:
[1] = target: T1, UDP-galactopyranose mutase (BcUGM) (Botrytis cinerea, UniProt A0A384JG93); test: enzyme kinetics with purified recombinant BcUGM, varying UDP-Galp, HPLC-UV and LC-MS product detection; format: biochemical
T1 construct: gene BCIN_05g00580

[2] = target: T1, UDP-galactopyranose mutase (BcUGM); test: product of purified recombinant BcUGM detected by HILIC and LC-MS/MS; format: biochemical

T1 sequence (A0A384JG93 entry or part of it): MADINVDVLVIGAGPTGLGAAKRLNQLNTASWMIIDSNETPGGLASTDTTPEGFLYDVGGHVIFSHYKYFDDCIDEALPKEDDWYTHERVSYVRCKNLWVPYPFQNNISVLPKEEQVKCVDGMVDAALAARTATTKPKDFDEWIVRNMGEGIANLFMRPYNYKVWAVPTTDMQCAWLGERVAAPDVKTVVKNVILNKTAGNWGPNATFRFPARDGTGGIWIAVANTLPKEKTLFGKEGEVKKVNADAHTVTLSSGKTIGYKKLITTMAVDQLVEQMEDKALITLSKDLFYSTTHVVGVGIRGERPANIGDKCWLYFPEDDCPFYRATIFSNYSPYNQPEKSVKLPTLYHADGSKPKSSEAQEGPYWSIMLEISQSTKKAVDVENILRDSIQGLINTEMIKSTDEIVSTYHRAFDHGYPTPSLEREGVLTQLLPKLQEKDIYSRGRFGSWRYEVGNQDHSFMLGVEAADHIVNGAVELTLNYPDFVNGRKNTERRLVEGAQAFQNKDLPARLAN

| SMILES | Ki [1] [µM] | product of purified recombinant BcUGM detected by HILIC and LC-MS/MS [2] |
| --- | --- | --- |
| C[C@H]1O[C@H](OP(=O)(O)OP(=O)(O)OC[C@H]2O[C@@H](n3ccc(=O)[nH]c3=O)[C@H](O)[C@@H]2O)[C@H](O)[C@@H](O)C1=O [UDP-KDG] | 222 |  |
| O=c1ccn([C@@H]2O[C@H](COP(=O)(O)OP(=O)(O)O[C@H]3O[C@@H]([C@H](O)CO)[C@H](O)[C@H]3O)[C@@H](O)[C@H]2O)c(=O)[nH]1 [UDP-galactofuranose] |  | transforming UDP-galactopyranose to UDP-galactofuranose in the presence of NADPH and flavin adenine dinucleotide (FAD) |
